Source: patent publication US20070077283A1, “METHOD OF ENHANCING TRANSMUCOSAL DELIVERY OF THERAPEUTIC COMPOUNDS” (Nastech Pharmaceutical Company Inc., priority 2005, published 2007)

Columns and labels:
[1] = tested on: human-derived tracheal/bronchial epithelial cells (EpiAirway Tissue Model); experiment: TER recovery / TER time course; type: cell-based; conditions: for TER Recovery (ohms) 16 Hours / TER Recovery (ohms) 0 Hour: lipid 1000 μM in Buffer I; for TER Recovery (ohms) 16 Hours: 16 hours post-treatment; for TER Recovery (ohms) 0 Hour: zero hour post-treatment
Protocol: TER recovery was calculated as described in the above paragraph.
Reversibility is a critical factor in selecting epithelial cell permeabiling enhancers since the barrier function of the epithelial cells serves as the first line of defense against pathogens and the entrance of toxins into the body. The permeation enhancing lipids C16 PAF; C18 PAF; C16 Enantiomeric PAF; POVPC; C16-04: 1 PC and PGPC were incubated with a monolayer of human-derived tracheal/bronchial epithelial cells (EpiAirway™ Model System) and TER […] The lipid glucosyl sphingosine was also tested. Each permeation enhancing lipid (except PGPC) was applied at a concentration of 1000 μM for 15, 30 and 60 minutes. The permeation enhancing lipid PGPC and the lipid glucosyl sphingosine were applied at a concentration of 500 μM for 1, 3, 5, 30 and 60 minutes. TER measurements were taken immediately after each application to determine how quickly each lipid could reduce TER.
[…] […] PBS served as a negative control and Triton-X100™ served as a positive control.
To asses how quickly the cells recovered after application and removal of the permeation enhancing lipid PGPC and the lipid glucosyl sphingosine, TER measurements were taken at 1, 3, 5, 7, and 9 hours post-treamtnet for each of the prior mentioned timed treatments (i.e., 1, 3, 5, 15, 30 and 60 minutes). TER recovery measures the reversibility of the lipid mediated effect on an epithelia. […] Hyptonic PBS served as a negative control for TER reduction and TER recovery.

[2] = tested on: human-derived tracheal/bronchial epithelial cells (EpiAirway Tissue Model); experiment: Insulin permeation across epithelial cell monolayer; type: cell-based; conditions: for permeation of insulin (in words): 1000 μM in the presence of Buffer I and Buffer II
Protocol: Also, the efficacy of a permeation enhancing lipid to enhance the permeation of insulin across and epithelial cell layer was measured. Refer to Example 2 of the instant application for general protocol details. […] Based on the FD3 permeation data in Table 8, the ability of the C16 PAF and C16 Enantiomeric PAF in the presence of Buffers I and II to enhance permeation of the biological agent insulin was assayed. Each lipid was tested at a 1000 μM concentration.

[3] = tested on: human-derived tracheal/bronchial epithelial cells (EpiAirway Tissue Model); experiment: Cell viability (MTT assay); type: cell-based; conditions: for effect on cell viability (MTT assay): compared with control Special Sauce, data not shown (Example 3); for MTT levels (cell viability): compared with PBS negative control (Example 5)
How it was run: (§1)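 EpiAirway inserts, after lipid dosing, incubated with MTT for 3 h at 37 °C, 5% CO2, then formazan extracted 2–24 h at room temperature in the dark. OD read at 570 nm minus 650 nm background. Viability given as percent of PBS-treated inserts, taken as 100%.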

[4] = tested on: human-derived tracheal/bronchial epithelial cells (EpiAirway Tissue Model); experiment: Peptide YY (PYY) permeation across epithelial cell monolayer; type: cell-based
Protocol: Permeation is expressed as percent permeation and was calculated as follows: [formula] [formula] Terms
In the instant example, the ability of permeation enhancing lipids to enhance the permeation of the biological agent, peptide YY (PYY; molecular weight of 3.7 kDa) across the epithelial cell monolayer model system (EpiAirway™) was measured. Also, the efficacy of a permeation enhancing lipid to enhance the permeation of insulin across and epithelial cell layer was measured. Refer to Example 2 of the instant application for general protocol details.

[5] = Cell viability (MTT assay); type: cell-based, human; conditions: human; PN159 25 μM / PYY 13.67 mg/mL (High)
How it was run: as §1

[6] = lipid 500 μM / PYY 13.67 mg/mL (High)
[7] = after 1, 3, 5, 15 and 30 minute treatments, lipids 500 μM, PN159 25 μM
[8] = after 60 minute treatment, lipids 500 μM, PN159 25 μM

Which “TER Recovery (ohms) 16 Hours” value [1] does the source give for `CCCCCCCCCCCCCCCCOC[C@@H](COP(=O)([O-])OCC[N+](C)(C)C)OC(C)=O` [C16 Enantiomeric PAF, 3-O-Hexadecyl-2-Acetoyl-sn-Glycero-1-Phosphocholine] here?
Its value is 462 ohms.

What about the “TER Recovery (ohms) 0 Hour” value [1] of the same compound?
The value was 9 ohms.

What about the “permeation of insulin (in words)” value [2] of the same compound?
Its value is “enhance the permeation of insulin across an epithelial cell monolayer”.

And the “% Insulin Permeation” value ([2]; lipid 1000 μM in Buffer I)?
The value was 3%.

What about the “% Insulin Permeation” value ([2]; lipid 1000 μM in Buffer II) of the same compound?
The value was 8%.

With `CCCCCCCCCCCCCCCCOC[C@H](COP(=O)([O-])OCC[N+](C)(C)C)OC(C)=O` [C16-02:0 PC(C16 PAF), 1-O-Hexadecyl-2-Acetoyl-sn-Glycero-3-Phosphocholine] as the compound, how does the “effect on cell viability (MTT assay)” value [3] read?
Its value is “did not reduce cell viability below that of Special Sauce”.

And the “TER Recovery (ohms) 16 Hours” value [1]?
The value was 650 ohms.

And the “TER Recovery (ohms) 0 Hour” value [1]?
The value was 9 ohms.

What about the “permeation of insulin (in words)” value [2] of the same compound?
Its value is “enhance the permeation of insulin across an epithelial cell monolayer”.

What about the permeation of insulin ([2]; lipid 1000 μM (Example 6)) of the same compound?
Its permeation of insulin is “more than 3%”.

What about the “% Insulin Permeation” value ([2]; lipid 1000 μM in Buffer I) of the same compound?
The value was 4%.

What about the “% Insulin Permeation” value ([2]; lipid 1000 μM in Buffer II) of the same compound?
The value was 8%.

What about the “% Insulin Permeation” value ([2]; lipid 1000 μM in PBS) of the same compound?
Its value is 3%.

With `C=CCC(=O)O[C@H](COCCCCCCCCCCCCCCCC)COP(=O)([O-])OCC[N+](C)(C)C` [C16-04:1 PC] as the compound, how does the “effect on cell viability (MTT assay)” value [3] read?
The value was “did not reduce cell viability below that of Special Sauce”.

And the “TER Recovery (ohms) 16 Hours” value [1]?
Its value is 520 ohms.

What about the “TER Recovery (ohms) 0 Hour” value [1] of the same compound?
The value was 10 ohms.

With `CCCCCCCCCCCCCCCCCCOC[C@H](COP(=O)([O-])OCC[N+](C)(C)C)OC(C)=O` [C18-02:0 PC(C18 PAF), 1-O-Octadecyl-2-Acetoyl-sn-Glycero-3-Phosphocholine] as the compound, how does the “effect on cell viability (MTT assay)” value [3] read?
Its value is “did not reduce cell viability below that of Special Sauce”.

What about the “TER Recovery (ohms) 16 Hours” value [1] of the same compound?
Its value is 497 ohms.

What about the “TER Recovery (ohms) 0 Hour” value [1] of the same compound?
Its value is 6 ohms.

For `CCCCCCCCCCCCCCCC(=O)OC[C@H](COP(=O)([O-])OCC[N+](C)(C)C)OC(=O)CCCC(=O)O` [PGPC, 1-Palmitoyl-2-Glutaroyl-sn-Glycero-3-Phosphocholine], which “MTT levels (cell viability)” value [3] is on record?
Its value is “MTT levels comparable to that of the PBS negative control”.

What about the “% Cell Viability” value [3, 6] of the same compound?
The value was 113%.

And the “time to full TER recovery (PBS control levels)” value [1, 7]?
Its value is “fully recovered within one hour”.

What about the “time to full TER recovery (PBS control levels)” value [1, 8] of the same compound?
Its value is “did not reach PBS TER control levels until three hours post-treatment”.

What about the “% PYY Permeation” value [4, 6] of the same compound?
Its value is 0.13%.

What does the source list for `CC(C)C[C@H](NC(=O)[C@H](C)NC(=O)[C@H](CCCCN)NC(=O)[C@H](CC(C)C)NC(=O)[C@H](C)NC(=O)[C@H](CC(C)C)NC(=O)[C@H](CCCCN)NC(=O)[C@H](CC(C)C)NC(=O)[C@H](C)NC(=O)[C@H](CC(C)C)NC(=O)[C@@H](N)CCCCN)C(=O)N[C@@H](CCCCN)C(=O)N[C@@H](C)C(=O)N[C@@H](C)C(=O)N[C@@H](CC(C)C)C(=O)N[C@@H](CCCCN)C(=O)N[C@@H](CC(C)C)C(=O)N[C@@H](C)C(N)=O` [PN159, reference compound]?
viability at 25 µM [5]: 89%; time to full TER recovery (PBS control levels) [1, 7]: 2 h; time to full TER recovery (PBS control levels) [1, 8]: 9 h; time to TER reduction ([1]; lipids 500 μM, PN159 25 μM): 10 min; % PYY Permeation ([4]; PN159 25 μM / PYY 13.67 mg/mL (High)): 3.71%

For `CCCCCCCCCCCCCCCC(=O)OC[C@H](COP(=O)([O-])OCC[N+](C)(C)C)OC(=O)CCCC=O` [POVPC, 1-Palmitoyl-2-(5′-oxo-Valeroyl)-sn-Glycero-3-Phosphocholine], which “MTT levels (cell viability)” value [3] is on record?
The value was “MTT levels comparable to that of the PBS negative control”.

What about the “effect on cell viability (MTT assay)” value [3] of the same compound?
The value was “did not reduce cell viability below that of the control Special Sauce”.

What about the “TER Recovery (ohms) 16 Hours” value [1] of the same compound?
The value was 508 ohms.

What about the “TER Recovery (ohms) 0 Hour” value [1] of the same compound?
The value was 71 ohms.
